Positions of bridges follow the written chain, without caps; N, C: chain ends. Non-standard residues stand in square brackets, D forms with d. Residues, ends and D or L forms follow the SMILES beside them. Phe(4-NO2) = N[C@@H](Cc1ccc([N+](=O)[O-])cc1)C(=O)O; dPhe(4-NO2) = N[C@H](Cc1ccc([N+](=O)[O-])cc1)C(=O)O; 2Nal = N[C@@H](Cc1ccc2ccccc2c1)C(=O)O; Orn = NCCC[C@H](N)C(=O)O
Assays:
SSTR2 = SSTR2 (Rattus norvegicus, UniProt P30680); assay: Competitive binding, displacement of [125I]Tyr11 S-14; set-up: expressed in transfected cells; conditions: [125I]Tyr11 S-14 250 pM, room temperature 2 hours; for IC50: membrane protein, read-out: SSTR2 Binding Affinity IC50; for Ki: calculated by Cheng and Prusoff, read-out: SSTR2 Binding Affinity Ki
Sequence of SSTR2 (P30680 whole entry): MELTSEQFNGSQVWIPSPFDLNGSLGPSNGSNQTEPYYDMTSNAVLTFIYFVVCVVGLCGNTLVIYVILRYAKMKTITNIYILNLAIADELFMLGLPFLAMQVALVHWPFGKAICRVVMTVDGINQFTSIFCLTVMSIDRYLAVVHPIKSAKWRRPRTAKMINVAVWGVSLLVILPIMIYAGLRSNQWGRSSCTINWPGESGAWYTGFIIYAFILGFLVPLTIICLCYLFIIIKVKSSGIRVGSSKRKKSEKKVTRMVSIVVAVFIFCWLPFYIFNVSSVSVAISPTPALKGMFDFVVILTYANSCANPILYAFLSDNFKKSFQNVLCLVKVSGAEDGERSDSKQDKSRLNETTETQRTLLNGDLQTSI
Protocol: In this evaluation the concentration of test compound required to displace 50% of somatostatin, SRIF, from the SRIF receptor subtypes expressed in mammalian cells is measured, i.e., the concentration required to inhibit 50% of [^125I] Tyr^11 S-14 (Amersham) (IC50) from binding to the SRIF receptor subtypes.
Radiolabeled SRIF is mixed with pituitary cells, the test compound is added, the mixture is incubated and the radioactivity is measured as compared to control. Reduced radioactivity indicates successful competitive binding of the test compound to the pituitary cell receptor. The concentration of the test compound in nanomolar units required to displace 50% of SRIF from the pituitary cell receptor is calculated and reported in Table II as the IC50 value. Also calculated is the inhibitory constant, Ki.
Tyr^11S-14 (150,000 cpm at 2000 Ci/mmole, 250 pM final concentration). The binding reaction is initiated by adding 2-60µg of membrane protein in a 170 µL volume. Final reaction volume is 200 µl/well. All incubations are carried out at room temperature for 2 hours. Free radioligand is separated from bound ligand by rapid filtration through a glass fiber filter (IH-201-HA) using an Inotech cell harvester. The filter is then washed several times with cold (4°C) binding buffer lacking BSA and protease inhibitors prior to counting in an LKB gamma master counter (78% efficiency). Whatman GFC filters presoaked in 0.3% polyethylenimine (to decrease background) are used.
The IC50 values and Ki values are calculated using the well-known methods described by Y. Cheng and W. H. Prusoff, Biochem. Pharmacol. 22, 3099-3108 (1973), incorporated herein by reference thereto.

[1] = molecular target: T1, rat somatostatin receptor subtype 2 (SSTR2) (Rattus norvegicus, UniProt P30680); assay: Yeast assay, somatostatin agonist activity (growth zone of modified yeast cells on histidine-free agar); type: cell-based; conditions: rating on a scale of 1-5 from zone of growing cells; S. Cerevisiae LY364
T1 construct: expressed in transfected cells; host or cells: Saccharomyces cerevisiae LY364
T1 sequence (P30680 whole entry): as above
Protocol: In this evaluation, yeast cells which have been specifically modified to functionally express rat somatostatin receptor subtype 2 (SSTR2) on their cell surfaces are used. S. Cerevisiae LY364 cells are plated in a standard synthetic agar medium which lacks histidine. In the absence of a somatostatin receptor agonist, the auxotrophic (his3) cells are unable to grow. In the presence of somatostatin, or a somatostatin agonist, the expression of an enzyme (His3p: imidazole-glycerol phosphate dehydratase) which is essential for histidine biosynthesis is induced. The cells become competent to produce histidine, resulting in a zone of growing cells around the applied test compound. The zone is measured and the test compound is given an agonist rating on a scale of 1-5 wherein 1 is minimum agonist activity and 5 is maximum agonist activity.
SCD-ura-trp: • 1) To 500 mL water add: • 1.7 g YNB without amino acids and (NH4)2SO4 • 5.0 g (NH4)2SO4 • 0.7 g CSM-ura-trp • 2) To additional 500 mL water add: 20 g Dextrose • 3) Autoclave separately. Mix.
SCL-ura-trp: • 1) To 500 mL water add: • 1.7 g YNB without amino acids and (NH4)2SO4 • 5.0 g (NH4)2SO4 • 0.7 g CSM-ura-trp • 2) To additional 500 mL water add: 30 mL Lactic Acid • 3) Autoclave separately. Mix.
SCG-ura-trp: • 1) To 500 mL water add: • 1.7 g YNB without amino acids and (NH4)2SO4 • 5.0 g (NH4)2SO4 • 0.7 g CSM-ura-trp • 2) To additional 500 mL water add: 30 g D-Galactose • 3) Autoclave separately. Mix.
SCG-ura-trp-his agar medium, pH 6.8: • 1) To 500 mL water add: • 1.7 g YNB without amino acids and (NH4)2SO4 • 5.0 g (NH4)2SO4 • 0.7 g CSM-ura-trp-his • Stirring Bar • 2) Adjust pH to 6.8-6.9 by dropwise addition of conc. NH4OH • 3) To additional 500 mL water add: 30 g D-Galactose, 20 g Agar • 4) Autoclave separately. • 5) Stir to mix thoroughly. • 6) Equilibrate temperature to 55°C. YNB without amino acids and (NH4)2SO4, CSM-ura-trp, and CSM-ura-trp-his are manufactured by Bio101. Ammonium sulfate ((NH4)2SO4), Dextrose (D-glucose), D-Galactose, and Lactic Acid are manufactured by Sigma.
(§1) • 1) Inoculate 2 mL SCD-ura-trp liquid medium in Falcon 2051 tube with a single colony taken from a plate containing LY364 (MATa ura3-52 leu2 his3 trp1 lys2 ade2 far1:: LYS2 fus1:: FUS1-HIS3 gpal::hisG sst2::ADE2 bearing the SSTR2 expression plasmid, pJH2, and the G protein expression plasmid, pLP82)cells. • 2) Incubate overnight in a roller drum at 30°C.
(§2) Day 2. • 1) Harvest the cells by centrifugation (3 krpm, 5 min, room temp). • 2) Re-suspend with 5 mL of sterile water. • 3) Harvest again by centrifugation. • 4) Re-suspend in 5 mL SCL-ura-trp liquid medium. • 5) Incubate for 6 hours in a roller drum at 30°C. • 6) Harvest the cells again by centrifugation. • 7) Re-suspend in 5 mL SCG-ura-trp liquid medium. • 8) Incubate overnight in a roller drum at 30°C.
(§3) Day 3. • 1) Autoclave SCG-ura-trp-his pH 6.8 agar medium. • 2) Cool to 55°C in water bath. • 3) Add 1 mL of LY364 culture to 1 liter of agar medium. • 4) Stir vigorously for 1 min. • 5) Pour 150 mL each into five 500 cm^2 plates. • 6) Allow to cool on level surface. • 7) Apply test compound.
(§4) On day 3, add 5µL 1 mg/mL S-14 to each plate. Day 5. Begin checking plates for growth around applied compounds. Day 7. Growth in response to somatostatin should be readily observable. Rate extent of growth or inhibition of growth according to rating scale described hereinabove.

[2] = molecular target: T1, rat somatostatin receptor subtype 2 (SSTR2); assay: Yeast assay, somatostatin antagonist activity (zone of no growth in presence of S-14); type: cell-based; set-up: key: 1 is minimum antagonist activity; 5 is maximum antagonist activity; -: When no activity is observed, the result is indicated by a dash; conditions: rating on a scale of 1-5 from zone of no growth; 5µL of 1 mg/mL S-14 added to each plate; S. Cerevisiae LY364
Protocol: To evaluate the somatostatin antagonist activity of a test compound, the above procedure is followed except on day 3, 5µL of 1 mg/mL of somatostatin, S-14, is added to each plate, before applying the test compound. If the test compound is an antagonist of somatostatin, then a zone of no growth will appear within the cell growth zone. This zone of no growth is measured and the test compound is given an antagonist rating on a scale of 1-5 wherein 1 is minimum antagonist activity and 5 is maximum antagonist activity.
The results are shown in Table I. When no activity is observed, the result is indicated by a dash.
as §1, §2, §3, §4

| SMILES | IC50 (SSTR2) | Ki (SSTR2) | Yeast Assay Agonist [1] | Yeast Assay Antagonist [2] |
| --- | --- | --- | --- | --- |
| NCCCC[C@@H]1NC(=O)[C@@H](Cc2c[nH]c3ccccc23)NC(=O)[C@H](Cc2ccc(O)cc2)NC(=O)[C@H](NC(=O)[C@@H](N)Cc2ccc([N+](=O)[O-])cc2)CSSC[C@@H](C(=O)N[C@@H](Cc2ccc3ccccc3c2)C(N)=O)NC(=O)[C@H](CO)NC1=O (H-[Phe(4-NO2)][dC]Y[dW]KSC[2Nal]-NH2; disulfide 2-7) | 10 nM | 4.44 nM |  |  |
| CC(=O)N[C@@H](Cc1ccc(I)cc1)C(=O)N[C@@H]1CSSC[C@@H](C(=O)N[C@H](Cc2ccc(O)cc2)C(N)=O)NC(=O)[C@H]([C@@H](C)O)NC(=O)[C@H](CCCCN)NC(=O)[C@@H](Cc2c[nH]c3ccccc23)NC(=O)[C@H](Cc2ccc(O)cc2)NC1=O | 6 nM | 2.8 nM | - | 4 |
| CC(C)[C@@H]1NC(=O)[C@H](CCCN)NC(=O)[C@@H](Cc2c[nH]c3ccccc23)NC(=O)[C@H](Cc2ccc(O)cc2)NC(=O)[C@H](NC(=O)[C@@H](N)Cc2ccc([N+](=O)[O-])cc2)CSSC[C@@H](C(=O)N[C@@H](Cc2ccc(O)cc2)C(N)=O)NC1=O (H-[Phe(4-NO2)][dC]Y[dW][Orn]VCY-NH2; disulfide 2-7) | 113 nM | 50.2 nM |  |  |
| CC(C)[C@@H]1NC(=O)[C@H](CCCCN)NC(=O)[C@@H](Cc2c[nH]c3ccccc23)NC(=O)[C@H](Cc2ccc(O)cc2)NC(=O)[C@H](NC(=O)[C@H](N)Cc2ccc([N+](=O)[O-])cc2)CSSC[C@@H](C(=O)N[C@@H](Cc2ccc(O)cc2)C(N)=O)NC1=O (H-[dPhe(4-NO2)][dC]Y[dW]KVCY-NH2; disulfide 2-7) | 39 nM | 17.3 nM |  |  |
| C[C@@H](O)[C@@H]1NC(=O)[C@H](CCCCN)NC(=O)[C@@H](Cc2c[nH]c3ccccc23)NC(=O)[C@H](Cc2ccc(O)cc2)NC(=O)[C@H](NC(=O)[C@@H](N)Cc2ccc(I)cc2)CSSC[C@@H](C(=O)N[C@@H](Cc2ccc(O)cc2)C(N)=O)NC1=O | 0.6 nM | 0.26 nM |  |  |
| C[C@@H](O)[C@@H]1NC(=O)[C@H](CCCNC(=N)N)NC(=O)[C@@H](Cc2c[nH]c3ccccc23)NC(=O)[C@H](Cc2ccc(O)cc2)NC(=O)[C@H](NC(=O)[C@@H](N)Cc2ccc([N+](=O)[O-])cc2)CSSC[C@@H](C(=O)N[C@@H](Cc2ccc(O)cc2)C(N)=O)NC1=O (H-[Phe(4-NO2)][dC]Y[dW]RTCY-NH2; disulfide 2-7 (inferred)) |  |  | - | 2 |
| CC(=O)N[C@@H](Cc1ccc(I)cc1)C(=O)N[C@@H]1CSSC[C@@H](C(=O)N[C@@H](Cc2ccc(O)cc2)C(N)=O)NC(=O)[C@H]([C@@H](C)O)NC(=O)[C@H](CCCCN)NC(=O)[C@@H](Cc2c[nH]c3ccccc23)NC(=O)[C@H](Cc2ccc(O)cc2)NC1=O |  |  | - | 1 |
| C[C@@H](O)[C@@H]1NC(=O)[C@H](CCCCN)NC(=O)[C@@H](Cc2c[nH]c3ccccc23)NC(=O)[C@H](Cc2ccc(O)cc2)NC(=O)[C@H](NC(=O)[C@@H](N)Cc2ccc3ccccc3c2)CSSC[C@@H](C(=O)N[C@@H](Cc2ccc(O)cc2)C(N)=O)NC1=O (H-[2Nal][dC]Y[dW]KTCY-NH2; disulfide 2-7 (inferred); N-terminus assumed) |  |  | - | 1 |

From patent publication EP0791603A2, “Pure somatostatin antagonist and methods of use thereof” (American Cyanamid Company, priority 1996, dated 1997)
